Results from PMC11256326, “Discovery of Heparin Mimetic, Potent, and Selective Inhibitors of Human Clotting Factor XIIIa” (ACS Omega, 2024).

Experiments:
[1] = biological target: T1, thrombin (Homo sapiens, UniProt P00734); assay: chromogenic substrate hydrolysis assay, thrombin; format: biochemical; details: for IC50: Tris-HCl pH 7.4, 37 °C, > values from highest concentration used; for thrombin HS (Hill slope) / thrombin ΔY (efficacy): pH 7.4, 37 °C
T1 construct: Human plasma proteins such as FXIIIa, thrombin, factor Xa, and factor XIa; purchased Haematologic Technologies; host or cells: human plasma
Source text: (§1) One of the motivations for targeting anion-binding sites on human FXIIIa was to achieve selectivity in inhibition over closely related enzymes such as other clotting serine proteases or other transglutaminases and cysteine proteases.
(§2) Human plasma proteins such as FXIIIa, thrombin, factor Xa, and factor XIa were procured from Haematologic Technologies. Recombinant human TG-2 was sourced from Tocris Bioscience. Their activities were validated according to the supplier’s instructions. Chromogenic substrates for thrombin and factor Xa were acquired from Biomedica Diagnostics, while the factor XIa chromogenic substrate (S-2366) was obtained from Diapharma. Dithiothreitol, N,N-dimethylcasein, and dansylcadaverine were purchased from Sigma Aldrich. Stock solutions of thrombin and factor XIa were prepared in 50 mM Tris-HCl buffer, pH 7.4, containing 150 mM sodium chloride, 0.1% PEG8000, and 0.02% Tween80. The stock solution of factor Xa was prepared in 20 mM Tris-HCl buffer, pH 7.4, containing 100 mM sodium chloride, 0.1% PEG8000, 2.5 mM CaCl2, and 0.02% Tween80. The stock solutions of FXIIIa and rTG-2 were prepared in 50 mM Tris-HCl, 1 mM CaCl2, 100 mM sodium chloride, 0.02% Tween80, 0.1% PEG8000, and 2 mg/mL dimethylcasein. Papain and its chromogenic substrate (N-α-benzoyl-L-arginyl-4-nitroanilide) were obtained from Sigma Aldrich. Papain was prepared in 50 mM Tris-HCl buffer, pH 7.4, containing 100 mM NaCl, 100 mM DTT, 2.5 mM CaCl2, 0.1% PEG8000, and 0.02% Tween80. Human plasma for coagulation assays was obtained from George King Bio-Medica for the clotting assays. Thromboplastin-D (PT reagent), APTT reagent containing ellagic acid, and 0.025 M solution of CaCl2 were obtained from Thermo Fisher Scientific. Results were reproduced at least three times.
(§3) The inhibitory potential of various heparin mimetics against other clotting factors, including thrombin, factor Xa, and factor XIa, was also examined using established chromogenic substrate hydrolysis assays.[47],[50] For instance, in each well of a 96-well microplate containing either 85 or 185 μL of 20–50 mM Tris-HCl buffer (pH 7.4), supplemented with 100–150 mM NaCl, 0.1% PEG8000, and 0.02% Tween80 at either 25 or 37 °C, 5 μL of the inhibitor (or high purity water) and 5 μL of the enzyme were added. The final concentrations of the enzymes were 6 nM (thrombin), 1.09 nM (factor Xa), and 0.8 nM (factor XIa). After a 5 min incubation period, 5 μL of Spectrozyme TH (final concentration: 0.050 mM), Spectrozyme FXa (0.125 mM), or factor XIa substrate (0.35 mM) was swiftly added, and the residual enzyme activity was gauged from the initial rate of increase in absorbance at λ405 nm. The relative residual enzyme activity was calculated as a function of the inhibitor concentration. If 50% or more of the enzyme was inhibited, the results were then plotted using eq 1 to determine the corresponding IC50 values.

[2] = test system: thrombin; assay: chromogenic substrate hydrolysis assay, thrombin; format: biochemical, human
Source text: as §1, §2, §3

[3] = biological target: T2, factor XIa (Homo sapiens, UniProt P03951); assay: chromogenic substrate hydrolysis assay, factor XIa; format: biochemical; details: for IC50: Tris-HCl pH 7.4, 37 °C, > values from highest concentration used, read-out: FXIa IC50; for FXIa HS (Hill slope) / FXIa ΔY (efficacy): pH 7.4, 37 °C
T2 construct: Human plasma proteins such as FXIIIa, thrombin, factor Xa, and factor XIa; purchased Haematologic Technologies; host or cells: human plasma
Source text: as §1, §2, §3

[4] = test system: normal human plasma; assay: activated partial thromboplastin time (APTT) of normal human plasma; format: biochemical; details: for APTT2X (concentration required to double APTT): normal human plasma, in vitro
Experimental: To further evaluate the selectivity as well as the potential toxicity of inhibitors, we studied their effects on the clotting times of normal human plasma as well as their effects on the proliferation of three cell lines. On the one hand, the inhibitors’ effects on activated partial thromboplastin time (APTT) and prothrombin time (PT) were measured, as described earlier under in vitro conditions,[52]−[55] using variable concentrations (0–2000 μM) (Table 3). […] On the other hand, the antiproliferative properties of inhibitors 13 and 16 were evaluated in three cell lines of breast (MCF-7), intestine (CaCo-2), and kidney (HEK-293) (Figure 5B), as described earlier.[56] […] Overall, inhibitor 16 can be considered for further development as a potent, selective, and nontoxic inhibitor of human FXIIIa.
Clotting times, including activated partial thromboplastin time (APTT) and prothrombin time (PT), were assessed in normal human plasma utilizing the BBL Fibrosystem fibrometer from Becton–Dickinson, as detailed in previous publications.[51]−[54] For the PT assay, thromboplastin-D was dissolved in 4 mL of highly purified water and then warmed to 37 °C. Subsequently, 10 μL of the inhibitor was added to 90 μL of normal human plasma and incubated for 30 s. Following this, 200 μL of prewarmed PT reagent was added, and the clotting time was recorded. In the APTT assay, 10 μL of the inhibitor was combined with 90 μL of normal human plasma and 100 μL of prewarmed APTT reagent (0.2% ellagic acid). After incubation for 4 min at 37 °C, clotting was initiated by adding 100 μL of prewarmed 0.025 M CaCl2, and the clotting time was documented. Multiple concentrations of each molecule were employed in both assays to establish a concentration vs effect curve.

[5] = biological target: T3, factor Xa (Homo sapiens, UniProt P00742); assay: chromogenic substrate hydrolysis assay, factor Xa; format: biochemical; details: for IC50: Tris-HCl pH 7.4, 37 °C, > values from highest concentration used, read-out: FXa IC50; for FXa HS (Hill slope) / FXa ΔY (efficacy): pH 7.4, 37 °C
T3 construct: Human plasma proteins such as FXIIIa, thrombin, factor Xa, and factor XIa; purchased Haematologic Technologies; host or cells: human plasma
Source text: as §1, §2, §3

T3 sequence (P00742 235-488 limits assumed): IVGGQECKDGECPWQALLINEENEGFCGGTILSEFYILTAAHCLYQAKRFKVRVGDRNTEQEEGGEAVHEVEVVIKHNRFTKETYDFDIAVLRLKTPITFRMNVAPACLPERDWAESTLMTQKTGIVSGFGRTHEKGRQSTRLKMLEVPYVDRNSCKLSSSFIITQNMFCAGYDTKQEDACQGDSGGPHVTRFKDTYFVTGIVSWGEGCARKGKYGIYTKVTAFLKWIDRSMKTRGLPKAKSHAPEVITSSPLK
T3 sequence (P00742 41-179 limits assumed): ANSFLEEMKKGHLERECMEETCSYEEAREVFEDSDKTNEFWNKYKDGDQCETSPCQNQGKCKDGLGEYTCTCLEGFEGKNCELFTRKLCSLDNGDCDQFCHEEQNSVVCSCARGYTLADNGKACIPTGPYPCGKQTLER
T2 sequence (P03951 388-625 limits assumed): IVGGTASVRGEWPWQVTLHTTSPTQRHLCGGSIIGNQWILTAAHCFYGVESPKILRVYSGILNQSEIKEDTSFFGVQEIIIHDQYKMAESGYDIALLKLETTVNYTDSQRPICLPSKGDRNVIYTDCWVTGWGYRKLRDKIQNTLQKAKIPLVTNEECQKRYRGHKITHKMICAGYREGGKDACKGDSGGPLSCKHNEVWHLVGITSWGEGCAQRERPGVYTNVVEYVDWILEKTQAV
T2 sequence (P03951 19-387 limits assumed): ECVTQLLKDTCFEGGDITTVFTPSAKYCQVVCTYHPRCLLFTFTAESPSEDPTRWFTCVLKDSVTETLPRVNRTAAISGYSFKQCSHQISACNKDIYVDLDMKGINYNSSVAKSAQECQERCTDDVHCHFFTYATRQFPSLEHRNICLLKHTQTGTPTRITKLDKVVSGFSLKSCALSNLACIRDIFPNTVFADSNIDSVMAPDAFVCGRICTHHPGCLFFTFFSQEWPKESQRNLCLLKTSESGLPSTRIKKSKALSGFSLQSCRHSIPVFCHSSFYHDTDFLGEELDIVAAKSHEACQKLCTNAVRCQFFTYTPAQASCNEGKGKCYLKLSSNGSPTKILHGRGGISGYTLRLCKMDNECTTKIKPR

SMILES	IC50 [1] [µM]	selectivity index for FXIIIa over thrombin [2]	selectivity index for FXIIIa over factor XIa [3] [fold]	IC50 [3] [µM]	concentration to double APTT as fold of the FXIIIa-IC50 [4] [fold]	APTT2X (concentration required to double APTT) [4] [µM]	selectivity index for FXIIIa over factor Xa [5]	IC50 [5] [µM]	FXa HS (Hill slope) [5]	FXa ΔY (efficacy) [5] [%]	thrombin HS (Hill slope) [1]	thrombin ΔY (efficacy) [1] [%]	FXIa HS (Hill slope) [3]	FXIa ΔY (efficacy) [3] [%]
Nc1c(/N=N/c2ccc(S(=O)(=O)CCOS(=O)(=O)O)cc2)c(S(=O)(=O)O)cc2cc(S(=O)(=O)O)c(/N=N/c3ccc(S(=O)(=O)CCOS(=O)(=O)O)cc3)c(O)c12 [compound 16]	> 500	> 208 fold	> 65	> 150	> 290	704.6 ± 69	> 208 fold	> 500						
Nc1c(/N=N/c2ccc(Nc3nc(Cl)nc(Nc4cccc(S(=O)(=O)O)c4)n3)cc2S(=O)(=O)O)c(S(=O)(=O)O)cc2c(O)c(/N=N/c3ccc(Nc4nc(Cl)nc(Nc5cccc(S(=O)(=O)O)c5)n4)cc3S(=O)(=O)O)ccc12 [compound 14]	> 500		> 30	> 150		583 ± 60	6 fold	31 ± 5.7	2.5 ± 0.9	53 ± 5				
Cc1cc(-c2ccc(/N=N/c3ccc4c(S(=O)(=O)O)cc(S(=O)(=O)O)c(N)c4c3O)c(C)c2)ccc1/N=N/c1ccc2c(S(=O)(=O)O)cc(S(=O)(=O)O)c(N)c2c1O [compound 18]						224.3 ± 20			1.9 ± 0.2	80 ± 2	2.6 ± 1.0	62 ± 5	1.9 ± 0.3	104 ± 3
COc1cc(-c2ccc(/N=N/c3ccc4c(S(=O)(=O)O)cc(S(=O)(=O)O)c(N)c4c3O)c(OC)c2)ccc1/N=N/c1ccc2c(S(=O)(=O)O)cc(S(=O)(=O)O)c(N)c2c1O [compound 19]	> 100	at least 7 fold		6.2 ± 0.4		1840.7 ± 88	at least 7 fold	> 100					1.5 ± 0.1	106 ± 3
Nc1c(S(=O)(=O)O)cc(Nc2ccc(Nc3nc(Cl)nc(Nc4ccccc4S(=O)(=O)O)n3)c(S(=O)(=O)O)c2)c2c1C(=O)c1ccccc1C2=O [compound 13]	86.9 ± 33.6	28 fold	> 48	> 150		1187.2 ± 175	20 fold	63.5 ± 13	1.5 ± 0.5	87 ± 4	1.9 ± 1.5	43 ± 11		
